Test results published in article PMC8151276, “An Integrated Approach toward NanoBRET Tracers for Analysis of GPCR Ligand Engagement” (Molecules, 2021).

How the values were obtained:
[1] = biological target: T1, ADRB3 (Homo sapiens, UniProt P13945); assay: NanoBRET screen HiBiT-ADRB3 in HEK293; format: binding; conditions: ADRB3
T1 construct: purchased Promega (in-house HiBiT-GPCR construct library, NanoBRET)
Method: (§1) Each tracer candidate was screened across the entire library of HiBiT-GPCR constructs using NanoBRET as the detection modality. As depicted in Figure 4A, the specificity of interactions was evaluated through decrease in BRET due to competitive displacement of a bound tracer by excess parental compound. Each tracer was analyzed for binding to each HiBiT-GPCR fusion in the absence and in the presence of competing parental compound. Briefly, HEK293 cells were transfected with HiBiT-GPCR constructs diluted into promoterless DNA to reduce expression and maximize translocation to the cell surface. Each tracer candidate was then screened at concentrations of 1 μM and 0.1 μM across cells expressing these fusions. Cells were treated for 1.5 h with tracer either alone or in the presence of 20 μM competing parental compound (i.e., control). BRET was measured upon addition of purified LgBiT and subsequent complementation with HiBiT genetically fused to a GPCR. The specificity of interactions was assessed through a decrease in BRET signal due to competitive displacement of the bound tracer. To further gauge the robustness of these interactions, the fold response over the control (i.e., BRETtracer/BRETcontrol) was calculated. We chose a 1.5-fold response, which translates to ≥7-fold signal over noise as the minimal threshold required to score an interaction as positive.
(§2) HiBiT-GPCR DNA constructs were diluted in 10 mM Tris pH 8 to a final concentration of 0.01 μg/μL, arrayed in 96-well plates and stored at −20 °C. For transfection, HEK293 cells were suspended in Opti-MEM (without phenol red) supplemented with 2% fetal bovine serum (Seradigm) and 100 units/mL penicillin–streptomycin (Gibco) at a final concentration of 220,000 cells/mL and dispensed into white 96-well plates at 90 μL/well. Subsequent transfections and screens were carried using an Agilent Bravo Automated Liquid Handling Platform. First, the 96-well HiBiT DNA arrays were diluted 25-fold in Opti-MEM (without serum or phenol red) to a final concentration of 0.0004 μg/μL and 20 μL of the diluted DNAs were transferred into new 96-well plates. Next, promoterless carrier DNA (1 μg/μL) was diluted 25-fold (0.04 μg/μL) and then dispensed into the diluted arrays at 20 μL/well. Following brief mixing, Viafect transfection reagent (Promega) diluted 16-fold into Opti-MEM was dispensed into the plates at 40 μL/well. After mixing by pipetting, plates were incubated for 10 min on the pipetting station deck. The DNA-transfection reagent complexes were then added to plates containing cells. To facilitate the screen, 10 μL of DNA-transfection reagent complexes were added in duplicates to the top 4 and bottom 4 rows, resulting in two identical 48-well arrays per plate. Plates with transfected cells were incubated for 18–20 h at 37 °C/5% CO2. A screen of each tracer across the entire library using two different concentrations requires duplicate plates of transfected cells. Depending on the number of tracers being screened, transfections can be scaled up using the same ratios. The next day, for each tracer, four 20× screening solutions in tracer dilution buffer (Promega) were prepared: two duplicates at final concentration of 20 μM and two duplicates at a final concentration of 2 μM. […] The four resulting solutions were diluted 4-fold in Opti-MEM without serum or phenol red to generate 5× solutions (5 µM and 0.5 µM tracer +/− 100 μM competing compound). To screen the library, a BioTek MultiFlo FX liquid dispenser was used to dispense 22.5 µL of tracer solution to the top 4 rows and 22.5 µL tracer + competing compound solution to the 4 bottom rows. Plates were briefly mixed on an orbital shaker and incubated for 1.5 h at room temperature. […] Plates were briefly mixed on an orbital shaker and incubated for 15 min to allow complementation.

[2] = biological target: T2, HTR1F (Homo sapiens, UniProt P30939); assay: NanoBRET screen HiBiT-HTR1F in HEK293; format: binding; conditions: HTR1F
T2 construct: purchased Promega (in-house HiBiT-GPCR construct library, NanoBRET)
T2 sequence (P30939 1-366): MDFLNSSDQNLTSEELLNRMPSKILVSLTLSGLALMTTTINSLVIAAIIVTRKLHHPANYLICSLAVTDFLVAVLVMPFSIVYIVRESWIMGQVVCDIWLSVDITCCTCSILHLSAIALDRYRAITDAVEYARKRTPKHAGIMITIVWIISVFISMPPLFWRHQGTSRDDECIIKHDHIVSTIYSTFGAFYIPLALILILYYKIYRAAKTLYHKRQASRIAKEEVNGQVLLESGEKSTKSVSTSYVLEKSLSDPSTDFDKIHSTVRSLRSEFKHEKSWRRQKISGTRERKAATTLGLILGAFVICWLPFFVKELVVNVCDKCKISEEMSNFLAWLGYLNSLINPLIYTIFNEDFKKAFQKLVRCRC
Method: as §1, §2

T1 sequence (P13945 whole entry): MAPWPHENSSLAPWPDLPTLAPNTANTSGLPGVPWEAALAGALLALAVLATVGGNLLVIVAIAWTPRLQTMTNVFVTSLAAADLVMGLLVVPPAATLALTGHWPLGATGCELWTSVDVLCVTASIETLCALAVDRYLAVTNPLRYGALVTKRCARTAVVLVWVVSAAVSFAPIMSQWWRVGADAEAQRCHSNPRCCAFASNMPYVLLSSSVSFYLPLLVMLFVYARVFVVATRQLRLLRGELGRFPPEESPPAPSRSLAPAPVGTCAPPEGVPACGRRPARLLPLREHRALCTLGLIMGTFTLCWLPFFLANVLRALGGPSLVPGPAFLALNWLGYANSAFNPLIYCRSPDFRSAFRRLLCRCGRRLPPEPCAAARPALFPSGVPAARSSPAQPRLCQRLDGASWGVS

## CC(C)N(CC[C@H](c1ccccc1)c1cc(CCNC(=O)c2ccc(CNC(=O)CCc3ccc4n3[B-](F)(F)[N+]3=C(c5ccc[nH]5)C=CC3=C4)cc2)ccc1O)C(C)C [Tolterodine-BZ-NB590]
[1]; tracer 0.1μM
  NanoBRET Fold Response: 0.93
[1]; tracer 1μM
  NanoBRET Fold Response: 0.99
[2]; tracer 0.1μM
  NanoBRET Fold Response: 1.24
[2]; tracer 1μM
  NanoBRET Fold Response: 1.63

## CCCn1c(=O)c2[nH]c(-c3ccc(OCC(=O)NCCNC(=O)CCOCCNC(=O)c4ccc(CNC(=O)CCc5ccc6n5[B-](F)(F)[N+]5=C(c7ccc[nH]7)C=CC5=C6)cc4)cc3)nc2n(CCC)c1=O [XAC-3-NB590]
[1]; tracer 0.1μM
  NanoBRET Fold Response: 1.11
[1]; tracer 1μM
  NanoBRET Fold Response: 1.05
[2]; tracer 0.1μM
  NanoBRET Fold Response: 1.07
[2]; tracer 1μM
  NanoBRET Fold Response: 1.05
